Read-outs that look alike come from different tables or passages of the source.
Legend:
[1] = tested on: Pseudomonas aeruginosa; conditions: P. aeruginosa ATCC 27853; CLSI established QC range; cited from earlier work
[2] = tested on: Pseudomonas aeruginosa; assay: Broth microdilution MIC (Example 12); assay type: cell-based
[3] = tested on: Acinetobacter baumannii; assay: Broth microdilution MIC (Example 12); assay type: cell-based
[4] = tested on: P. aeruginosa and A. baumannii; conditions: P. aeruginosa (MMX 103), QC; cited from earlier work
[5] = tested on: Escherichia coli; assay: Broth microdilution MIC (Example 12); assay type: cell-based
[6] = tested on: Klebsiella pneumoniae; assay: Broth microdilution MIC (Example 12); assay type: cell-based
[7] = tested on: Gram-positive aerobic bacteria (S. aureus, MRSA, CA-MRSA); assay: MIC90 against 150 clinical isolates of Gram-positive aerobic bacteria; assay type: cell-based; conditions: S. aureus (50 isolates)
[8] = tested on: Enterobacteriaceae; assay: Broth microdilution MIC (Example 11); assay type: cell-based, E. coli, K. pneumoniae, Enterobacter cloacae
[9] = tested on: Escherichia coli; conditions: E. coli ATCC 25922; CLSI established QC range; cited from earlier work
[10] = tested on: Enterobacteriaceae; conditions: E. coli (MMX 102), QC; cited from earlier work
[11] = tested on: P. aeruginosa; assay: Broth microdilution MIC (Example 10); assay type: cell-based, Pseudomonas aeruginosa; conditions: initial MIC testing
[12] = tested on: P. aeruginosa; conditions: P. aeruginosa isolate 103; CLSI QC range in parenthesis; cited from earlier work
[13] = tested on: P. aeruginosa; assay: Checkerboard FIC/FICI assay; assay type: cell-based, Pseudomonas aeruginosa; conditions: during FIC testing
[14] = tested on: P. aeruginosa; conditions: P. aeruginosa isolate 103; CLSI QC range in parenthesis; cited from earlier work; remark: listed apart in the source
[15] = tested on: Burkholderia cepacia complex; assay: Checkerboard FIC/FICI assay; assay type: cell-based, Burkholderia spp.; conditions: during FIC testing
[16] = tested on: Burkholderia cepacia complex; assay type: cell-based, Burkholderia spp.; conditions: initial MIC testing

CC(C)(O/N=C(\C(=O)N[C@@H]1C(=O)N2C(C(=O)[O-])=C(C[n+]3ccccc3)CS[C@H]12)c1csc(N)n1)C(=O)O [CAZ]
>64 µg/mL: MIC ([2]; P. aeruginosa CDC 231, KPC/OXA) | MIC ([2]; P. aeruginosa CDC 241, IMP/OXA) | MIC ([2]; P. aeruginosa CDC 246, NDM/OXA) | MIC ([2]; P. aeruginosa CDC 250, NDM/OXA) | MIC ([2]; P. aeruginosa CDC 439, IMP) | MIC ([2]; P. aeruginosa CDC 457, VIM) | MIC ([3]; A. baumannii CDC 274, ESBL/OXA) | MIC ([3]; A. baumannii CDC 275, ESBL/OXA) | MIC ([3]; A. baumannii CDC 277, ESBL/OXA) | MIC ([3]; A. baumannii CDC 311, OXA) | MIC ([3]; A. baumannii CDC 312, OXA) | MIC ([3]; A. baumannii CDC 313, ESBL/OXA) | MIC ([3]; A. baumannii NCTC 13304, OXA) | MIC ([5]; E. coli ATCC BAA-2471, NDM) | MIC ([5]; E. coli CDC 114, ESBL/KPC) | MIC ([5]; E. coli CDC 118, ESBL/NDM) | MIC ([5]; E. coli CDC 435, NDM) | MIC ([5]; E. coli CDC 503, ESBL/NDM) | MIC ([5]; E. coli MMX 5755, ESBL) | MIC ([5]; E. coli MMX 5756, ESBL) | MIC ([6]; K. pneumoniae ATCC BAA-1705, ATCC QC organism (Table 102)) | MIC ([6]; K. pneumoniae ATCC BAA-1705, ESBL/KPC) | MIC ([6]; K. pneumoniae CDC 112, KPC) | MIC ([6]; K. pneumoniae CDC 113, ESBL/KPC) | MIC ([6]; K. pneumoniae CDC 115, ESBL/KPC) | MIC ([6]; K. pneumoniae CDC 120, ESBL/KPC) | MIC ([6]; K. pneumoniae CDC 129, ESBL/KPC) | MIC ([6]; K. pneumoniae CDC 135, ESBL/VIM) | MIC ([6]; K. pneumoniae CDC 138, ESBL/NDM) | MIC ([6]; K. pneumoniae CDC 158, ESBL/NDM/OXA) | MIC90 ([7]; CA-MRSA) | MIC90 ([7]; MRSA)
>32 µg/mL: MIC ([8]; E. cloacae (MMX 5981), NDM-1, LVX-R, MEM-R, CAZ-R, GEN-R) | MIC ([8]; E. coli (MMX 5980), NDM-1, LVX-R, MEM-R, CAZ-R, GEN-R) | MIC ([8]; K. pneumoniae (MMX 4622), KPC-2, MEM-R, CAZ-R) | MIC ([8]; K. pneumoniae (MMX 4623), KPC-2, MEM-R, CAZ-R, GEN-R) | MIC ([8]; K. pneumoniae (MMX 4653), KPC-3, LVX-R, MEM-R, CAZ-R) | MIC ([8]; K. pneumoniae (MMX 4683), KPC-2, LVX-R, MEM-R, CAZ-R) | MIC ([8]; K. pneumoniae (MMX 4685), ESBL, LVX-R, MEM-R, CAZ-R) | MIC ([8]; K. pneumoniae (MMX 4694), KPC-3, LVX-R, MEM-R, CAZ-R) | MIC ([8]; K. pneumoniae (MMX 5979), NDM-1, LVX-R, MEM-R, CAZ-R, GEN-R)
(1-4) μg/mL: QC range of MIC [1]
64 µg/mL: MIC ([2]; P. aeruginosa CDC 230, VIM/OXA) | MIC ([2]; P. aeruginosa CDC 356, KPC) | MIC ([2]; P. aeruginosa CDC 516, KPC/AmpC) | MIC ([3]; A. baumannii CDC 273, ESBL/OXA) | MIC ([3]; A. baumannii CDC 284, ESBL/OXA) | MIC ([3]; A. baumannii CDC 307, OXA) | MIC ([3]; A. baumannii CDC 308, ESBL/OXA) | MIC ([5]; E. coli CDC 451, KPC)
16 µg/mL: MIC ([5]; E. coli MMX 5758, ESBL) | MIC90 ([7]; MSSA) | MIC ([8]; E. coli (MMX 8424), ESBL, CAZ-R) | MIC ([8]; E. coli (MMX 8425), ESBL, LVX-R, CAZ-R, GEN-R)
8 µg/mL: MIC ([8]; K. pneumoniae (MMX 4684), ESBL, MEM-R)
4 µg/mL: MIC ([6]; K. pneumoniae CDC 126, ESBL/KPC) | MIC ([6]; K. pneumoniae MMX 9029, ESBL)
0.12 µg/mL: MIC ([5]; E. coli ATCC 35218, ATCC QC organism (Table 102)) | MIC ([5]; E. coli ATCC 35218, ESBL) | MIC ([8]; E. coli (MMX 102), QC)
(0.06-0.5) μg/mL: QC range of MIC [9] | CLSI Quality Control Range (MIC) [10]
2 µg/mL: MIC ([2]; P. aeruginosa ATCC 27853, ATCC QC organism (Table 102))
(1.4): CLSI Quality Control Range (MIC) [4]
32 µg/mL: MIC ([2]; P. aeruginosa CDC 444, VIM) | MIC ([2]; P. aeruginosa CDC 518, KPC/AmpC) | MIC ([5]; E. coli MMX 5745, KPC) | MIC ([8]; E. coli (MMX 8423), ESBL, LVX-R, CAZ-R, GEN-R)
0.25 µg/mL: MIC ([5]; E. coli ATCC 25922, ATCC QC organism (Table 102))

NC[C@H]1O[C@H](O[C@H]2[C@H](O)[C@@H](O[C@H]3O[C@H](CO)[C@@H](O)[C@H](N)[C@H]3O)[C@H](N)C[C@@H]2N)[C@H](N)C[C@@H]1O [TOB]
128 µg/mL: MIC ([11]; P. aeruginosa isolate 6322 (MEM-R, TOB-R, AMK-R, CIP-R, AZT-R)) | MIC ([11]; P. aeruginosa isolate 6977 (MEM-I, TOB-R, CIP-R, AZT-I)) | MIC ([13]; isolate 6322) | MIC ([13]; isolate 6977)
0.5 µg/mL: MIC ([11]; P. aeruginosa isolate 7745 (MEM-R, CIP-R, AZT-R)) | MIC ([11]; P. aeruginosa isolate 7871 (MEM-R, AZT-I)) | MIC ([11]; P. aeruginosa isolate 7874) | MIC ([11]; P. aeruginosa isolate 9108 (CIP-R, AZT-I)) | MIC ([13]; isolate 7745) | MIC ([13]; isolate 9108)
8 µg/mL: MIC ([16]; B. cepacia isolate 9040)
>256 µg/mL: MIC ([11]; P. aeruginosa isolate 1553 (TOB-R, AMK-R, CIP-R)) | MIC ([11]; P. aeruginosa isolate 8797 (MEM-R, TOB-R, AMK-R, CIP-R, AZT-R, COL-R))
1 µg/mL: MIC ([11]; P. aeruginosa isolate 103, QC strain) | MIC ([11]; P. aeruginosa isolate 7762 (MEM-I, CIP-I)) | MIC ([11]; P. aeruginosa isolate 7886 (MEM-R, CIP-R, AZT-R)) | MIC ([13]; isolate 103 (ATCC 25922), each agent tested alone for QC, one replicate)
32 µg/mL: MIC ([11]; P. aeruginosa isolate 1530 (TOB-R, AMK-R, CIP-R)) | MIC ([11]; P. aeruginosa isolate 7754 (MEM-R, TOB-R, CIP-R, AZT-I)) | MIC ([11]; P. aeruginosa isolate 8798 (MEM-R, TOB-R, AMK-R, CIP-R, AZT-R, COL-R)) | MIC ([15]; B. cenocepacia isolate 0548) | MIC ([15]; B. cepacia isolate 0546)
16 µg/mL: MIC ([11]; P. aeruginosa isolate 1497 (TOB-R AMK-R, CIP-I, AZT-R, COL-R)) | MIC ([13]; isolate 8798) | MIC ([15]; B. cepacia isolate 1793) | MIC ([16]; B. multivorans isolate 8952 (CIP-I))
64 µg/mL: MIC ([16]; B. cenocepacia isolate 0548 (CIP-R)) | MIC ([16]; B. cepacia isolate 0546) | MIC ([16]; B. cepacia isolate 1793) | MIC ([16]; B. cepacia isolate 1794) | MIC ([16]; B. multivorans isolate 1791) | MIC ([16]; B. multivorans isolate 5665 (CIP-I))
(0.25-1) μg/mL: CLSI QC range of MIC [12] | CLSI QC range of MIC [14]
256 µg/mL: MIC ([15]; B. cenocepacia isolate 0813) | MIC ([16]; B. cenocepacia isolate 0813 (CPI-I))

Reference: US20230124862A1, “BISMUTH THIOL COMPOUNDS AND COMPOSITIONS AND METHODS OF TREATING MICROBIAL CO-INFECTIONS” (Microbion Corporation, priority 2020, published 2023)
